Patent publication US5032398A, “Selective modification of the catalytic subunit of pertussis toxin” (priority 1986, dated 1991)
Where “and” joins values, the source holds several entries; their conditions need not be identical. Equal entries are not always repeated. Where two headings read alike, the source gives them in different places.

Experiments:
Type in all cases: biochemical
pertussis toxin [1] = molecular target: T1, pertussis toxin (Bordetella pertussis, UniProt P04977); test: Screen of compounds at 1 mM for stimulation of the NADase activity of the toxin (Example Three); conditions: for Emax at 1000 µM / Fractional Activation: compound 1 mM, relative to 1 mM ATP, toxin preincubated with 20 mM DTT and 2% CHAPS, 3 h at 37° C, average ± half range of two trials; for Emax at 1000 µM: read-out: Fractional Activation
T1 sequence (P04977 35-269 limits assumed): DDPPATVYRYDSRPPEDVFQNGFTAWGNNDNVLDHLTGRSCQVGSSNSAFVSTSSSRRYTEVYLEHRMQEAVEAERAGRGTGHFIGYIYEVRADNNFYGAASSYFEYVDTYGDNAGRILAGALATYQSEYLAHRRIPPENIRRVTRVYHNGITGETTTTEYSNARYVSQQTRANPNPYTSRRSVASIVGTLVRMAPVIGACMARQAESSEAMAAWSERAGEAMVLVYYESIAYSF
Description: The ADP-ribosylating activity of the pertussis toxin can be detected as a nicotinamide-adenine dinucleotide-glycohydrolase (NADase) activity, which can be conveniently assayed through the use of [nicotinamide-^14 C] or [nicotinamide-^3 H] NAD. NAD consists of ADP-ribose linked to nicotinimide, and thus the extent of the release of ADP-ribose from NAD is an indication of the ability of the toxin to cause ill effects. In conducting this assay of the hydrolysis of labelled NAD, ion-exchange column chromatography was employed to resolve the product from the substrate according to the method described by Moss et al., J. Biol. Chem. 258, 11879 (1983) which is incorporated herein by reference. However, several modifications to this method were employed. First, a QAE-Sephadex resin was employed, as was a [nicotinamide-^3 H] NAD. Specifically, a 2 ml QAE-Sephadex column was first washed with 10 ml 1NHCl, followed by 10 ml H2 O, 20 ml 0.5M Tris-HCl pH 7.0, and 40 ml H2 O. [^3 H] NAD was applied, and the column washed with 20 ml water to elute impurities. Purified [^3 H] NAD was eluted with 0.25M NaCl, and stored in small aliquots at -70° C. The purified [^3 H] NAD contributed 50 mM NaCl (final concentration) to the NADase assays.
Before the end of the reaction, 2 ml QAE-Sephadex columns were treated with 10 ml 0.1M imidazole-HCl pH 7.0 with 1.0M NaCl, followed by 40 ml water. The NADase reaction (in 100 μl) was terminated by adding 0.85 ml of ice-cold water, and the entire 0.95 ml was pipetted into a treated QAE column. The labelled nicotinamide was then eluted with 3 ml of water directly into a scintillation vial and counted. The absorbed labelled NAD was then eluted into radioactive waste with 10 ml 0.1M imidazole-HCl pH 7.0 with 1.0M NaCl, and the column stored partially immersed in a water bath until the next assay.
(§1) The pertussis toxin in the Examples comprised 50 μg of the toxin in a 500 μl solution of 10 mM sodium phosphate-50 mM sodium chloride-water solution having a pH of 7. The enzymatic activity was detected as the hydrolysis of nicotinamide labelled NAD and ion-exchange column chromatography to resolve the product from the substrate. Unless otherwise noted, the assay was initiated by adding 0.5 to 2.5 μg of the toxin to a reaction mixture for a final volume of 100 μl. The NADase reaction was terminated by adding 0.85 ml of ice-cold water. The entire 0.95 ml was then pipetted into a QAE-Sephadex column (chloride form) and the labelled nicotinamide eluted with 3 ml of water directly into a scintillation vial and counted. […] One unit of NADase activity is defined as 1 pmol NAD hydrolyzed per hour.
The various compounds were screened for the ability to stimulate the NADase activity of the toxin when present in a concentration of 1 mM. Before assay the toxin (1 μg per assay) was incubated at 37° C. for ten minutes with 20 mM DTT and 2 weight percent CHAPS. Assays were for three hours at 37° C., and fractional activation is defined as activity of the compound less the activity in the absence of an activator divided by the activity in the presence of 1 mM ATP less activity in the absence of the activator. The value given is the average plus one-half the range for two separate trials. In each trial, duplicates were measured. […] The results are shown in Table II, wherein P denotes phosphate.

pertussis toxin [2] = molecular target: T1, pertussis toxin; test: Activation constants (A0.5) of polyphosphates by NADase assay; conditions: for EC50 / fraction of the ATP effect: in the presence of a mild detergent
Procedure: In the description herein, activation constants for the substances may be expressed by a numerical value (A0.5) by using an NADase assay.
as §1

pertussis toxin [3] = molecular target: T1, pertussis toxin; test: Inactivation of NADase activity by iodoacetate after different activator combinations (Example Seven); conditions: additions to first incubation only (DTT 1 mM, ATP 1 mM, CHAPS 1%); second incubation none; read-out: Percent NADase activity relative to iced control
Procedure: Pertussis toxin was incubated first at 37° C. for fifteen minutes in […] buffer A (100 mM Tris-HCl, pH 8.0 with 1 mM NaEDTA). EDTA was added to chelate divalent cations, which may promote oxidation of free --SH groups. During this incubation, DTT and ATP were present in concentrations of 1 mM each, and CHAPS was present in a concentration of 1 weight percent. Labelled iodoacetate was then added ([…], 12.5 mM), and the tube incubated on ice for twenty hours. The sample was then mixed with sodium dodecylsulfate and β-mercaptoethanol, heated at 95° C. for one minute, and electrophoresed. After electrophoresis, the gel was fixed, treated with Fluorohance (Research Products International), dried and used to expose x-ray film.
(§2) Pertussis toxin was incubated at 37° C. for fifteen minutes as described in Example Six, and then a second incubation was begun by adding 10 μl buffer A with or without 12.5 mM iodoacetate, mixing the contents of the tube and lowering the temperature to 30° C. After fifteen minutes, the tubes were shifted to an ice bath for ten minutes. A third incubation was then begun by adding 10 μl buffer A containing 200 mM DTT to those tubes containing iodoacetate to scavenge the iodoacetate. To those tubes not containing iodoacetate during the second incubation, a mixture of 200 mM DTT and 12.5 mM iodoacetate in buffer A, previously incubated for an hour on ice, was added. The third incubation was continued for one hour on ice.
(§3) The contents of each tube were then assayed for NADase activity by adding 40 μl of a reaction mix consisting of buffer A containing carbon-14 labelled NAD (final concentration in the 100 μl final volume was 25 μM), and 50 mM sodium chloride. Different reaction mixtures with various additions were used, so that in all tubes the final concentration of ATP was 1 mM and CHAPS was 1 weight percent. The assay was conducted at 37° C. for sixty minutes, and the released labelled nicotinimide was isolated and counted. The iced controls were formed by incubating pertussis toxin (1 μg) on ice in 10 mM sodium phosphate (pH 7) and 50 mM sodium chloride during the first three incubations. […] The first three incubations were done under a nitrogen atmosphere using degassed conditions, and the second and third incubations were done under subdued light.

pertussis toxin [4] = molecular target: T1, pertussis toxin; test: Inactivation of NADase activity by sulfhydryl reagents, 6 minutes or 18 hours at 0-4° (Example Eight); conditions: first incubation: ATP, DTT, CHAPS
Procedure: as §2, §3
The procedure followed in Example Seven was repeated for this study, except that N-ethylmaleimide, chloroacetamide or chloroacetate were substituted for iodoacetate. After the 30° C. incubation, the tubes were either incubated for six minutes or eighteen hours at 0°-4° C. before the 10 μl of 200 mM DTT (with or without quenched reagent) was added. Those tubes receiving the DTT after six minutes were incubated for nineteen hours at 0°-4° C. prior to the NADase assay. Those receiving the DTT after eighteen hours were incubated with DTT for one hour, as in Example Seven. The tubes were then assayed for NADase activity at the same time.

[5] = FIGS. 1A and 1B, read-out: activation constants (A0.5)

Question: With `O=P(O)(O)OC(CO)CO` [2-glycerol-P] as the compound, how does the Emax at 1000 µM (pertussis toxin [1]) read?
Answer: -1 ± 3%

Question: With `Nc1ncnc2c1ncn2[C@@H]1O[C@H](COP(=O)(O)OP(=O)(O)O)[C@@H](O)[C@H]1O` [ADP] as the compound, how does the “Stimulation (activation) of pertussis toxin, in words” value (from here on “Stimulation (activation)”) (pertussis toxin [1]) read?
Answer: effective

Question: What about the Emax at 1000 µM (pertussis toxin [1]) of the same compound?
Answer: 107 ± 6%

Question: What about the EC50 (pertussis toxin [2]; [5]) of the same compound?
Answer: 6 µM

Question: Which Emax at 1000 µM (pertussis toxin [1]) does the source give for `Nc1ncnc2c1ncn2[C@@H]1O[C@H](COP(=O)(O)O)[C@@H](O)[C@H]1O` [AMP] here?
Answer: 26 ± 9%

Question: Which “Stimulation (activation)” value (pertussis toxin [1]) does the source give for `Nc1ncnc2c1ncn2[C@@H]1O[C@H](COP(=O)(O)OP(=O)(O)OP(=O)(O)O)[C@@H](O)[C@H]1O` [ATP] here?
Answer: effective

Question: And the “NADase activity in the presence of 1 mM ATP” value (pertussis toxin [1]; two trials, without ATP 44 and 18)?
Answer: 111 units per microgram toxin and 97 units per microgram toxin

Question: What about the EC50 (pertussis toxin [2]; [5]) of the same compound?
Answer: 0.2 µM

Question: What about the EC50 (pertussis toxin [2]; read-out: activation constant) of the same compound?
Answer: ~0.2 µM

Question: What about the remaining activity at 1000 µM (pertussis toxin [3]) of the same compound?
Answer: 13%

Question: How did the Emax at 1000 µM (pertussis toxin [1]) turn out when `Nc1ccn([C@@H]2O[C@H](COP(=O)(O)OP(=O)(O)OP(=O)(O)O)[C@@H](O)[C@H]2O)c(=O)n1` [CTP] was run?
Answer: 103 ± 9%

Question: For `Nc1nc2c(ncn2[C@@H]2O[C@H](COP(=O)(O)OP(=O)(O)OP(=O)(O)O)[C@@H](O)[C@H]2O)c(=O)[nH]1` [GTP], which Emax at 1000 µM (pertussis toxin [1]) is on record?
Answer: 87 ± 1%

Question: And the EC50 (pertussis toxin [2]; [5])?
Answer: 35 µM

Question: With `O=c1[nH]cnc2c1ncn2[C@@H]1O[C@H](COP(=O)(O)OP(=O)(O)OP(=O)(O)O)[C@@H](O)[C@H]1O` [ITP] as the compound, how does the Emax at 1000 µM (pertussis toxin [1]) read?
Answer: 85 ± 1%

Question: For `O=P(O)(O)O` [P, phosphate], which “Stimulation (activation)” value (pertussis toxin [1]) is on record?
Answer: ineffective

Question: What about the “Fractional Activation” value (pertussis toxin [1]) of the same compound?
Answer: 0.01 ± .01

Question: How did the Emax at 1000 µM (pertussis toxin [1]) turn out when `O=c1ccn([C@@H]2O[C@H](COP(=O)(O)OP(=O)(O)OP(=O)(O)O)[C@@H](O)[C@H]2O)c(=O)[nH]1` [UTP] was run?
Answer: 92 ± 3%

Question: And the EC50 (pertussis toxin [2]; [5])?
Answer: 15 µM

Question: How did the “Stimulation (activation)” value (pertussis toxin [1]) turn out when `Nc1ncnc2c1ncn2[C@@H]1O[C@H](CO)[C@@H](O)[C@H]1O` [adenosine] was run?
Answer: ineffective

Question: And the Emax at 1000 µM (pertussis toxin [1])?
Answer: 2 ± 2%

Question: What about the “Effect on the dose-response relationship of ATP or pyrophosphate” value (pertussis toxin [2]; adenosine 1 mM) of the same compound?
Answer: failed to significantly alter

Question: Which NADase activity (pertussis toxin [4]; 6 minutes at 0-4°) does the source give for `NC(=O)CCl` [chloroacetamide] here?
Answer: 76 pmol per μg per hour

Question: And the “percent of activity with no addition to second incubation” value (shortened to “percent of activity with no addition”) (pertussis toxin [4]; 6 minutes at 0-4°)?
Answer: 79%

Question: What about the NADase activity (pertussis toxin [4]; 18 hours at 0-4°) of the same compound?
Answer: 35 pmol per μg per hour

Question: What about the “percent of activity with no addition” value (pertussis toxin [4]; 18 hours at 0-4°) of the same compound?
Answer: 36%

Question: How did the NADase activity (pertussis toxin [4]; 6 minutes at 0-4°) turn out when `O=C(O)CCl` [chloroacetate] was run?
Answer: 86 pmol per μg per hour

Question: And the “percent of activity with no addition” value (pertussis toxin [4]; 6 minutes at 0-4°)?
Answer: 91%

Question: And the NADase activity (pertussis toxin [4]; 18 hours at 0-4°)?
Answer: 85 pmol per μg per hour

Question: And the “percent of activity with no addition” value (pertussis toxin [4]; 18 hours at 0-4°)?
Answer: 87%

Question: Which results are given for `O=P(O)(O)OC[C@H]1OC(O)[C@H](O)[C@@H](O)[C@@H]1O` (stereo partly shown) [glucose-6-P, glucose 6-phosphate]?
Answer: Stimulation (activation) of pertussis toxin, in words (pertussis toxin [1]): ineffective; Emax at 1000 µM (pertussis toxin [1]): -3 ± 2%

Question: For `Cc1ncc(COP(=O)(O)O)c(C=O)c1O` [pyridoxal-P], which Emax at 1000 µM (pertussis toxin [1]) is on record?
Answer: 53 ± 6%

Question: `O=P(O)(O)OP(=O)(O)O` [pyro-P, pyrophosphate] was tested. Which “Stimulation (activation)” value (pertussis toxin [1]) did it give?
Answer: effective

Question: What about the “Fractional Activation” value (pertussis toxin [1]) of the same compound?
Answer: 0.85 ± .11

Question: And the “fraction of the ATP effect” value (pertussis toxin [2]; FIGS. 1A and 1B)?
Answer: 0.7

Question: Which Emax at 1000 µM (pertussis toxin [1]) does the source give for `NC(COP(=O)(O)O)C(=O)O` (stereo not shown) [serine-P] here?
Answer: -4 ± 2%

Question: Which results are given for `O=P(O)(O)OP(=O)(O)OP(=O)(O)OP(=O)(O)O` [tetrapoly-P, tetrapolyphosphate]?
Answer: Fractional Activation (pertussis toxin [1]): 0.92 ± .12; fraction of the ATP effect (pertussis toxin [2]; FIGS. 1A and 1B): 0.4; EC50 (pertussis toxin [2]; [5]): ≥ 170 µM

Question: With `CC(OP(=O)(O)O)C(N)C(=O)O` (stereo not shown) [threonine-P] as the compound, how does the Emax at 1000 µM (pertussis toxin [1]) read?
Answer: 1 ± 1%

Question: Which results are given for `O=P1([O-])OP(=O)([O-])OP(=O)([O-])O1.[Na+].[Na+].[Na+]` [trimeta-P, trimetaphosphate]?
Answer: Fractional Activation (pertussis toxin [1]): 0.69 ± .22; fraction of the ATP effect (pertussis toxin [2]; FIGS. 1A and 1B): 0.3; EC50 (pertussis toxin [2]; [5]): ≥ 260 µM

Question: `O=P(O)(O)OP(=O)(O)OP(=O)(O)O` [tripoly-P, tripolyphosphate] was tested. Which “Fractional Activation” value (pertussis toxin [1]) did it give?
Answer: 0.98 ± .14

Question: What about the “fraction of the ATP effect” value (pertussis toxin [2]; FIGS. 1A and 1B) of the same compound?
Answer: 0.6

Question: For `NC(Cc1ccc(OP(=O)(O)O)cc1)C(=O)O` (stereo not shown) [tyrosine-P], which Emax at 1000 µM (pertussis toxin [1]) is on record?
Answer: 2 ± 2%
